From PubChem BioAssay AID328 (DTP/NCI, 2004) come the findings set out here.

“And” between values parts separate entries of the source, which are not always exact repeats. Equal entries are not always repeated. Inconclusive results and toxic doses are left out.

The test system of the assay is BDF1 mice, P388 leukemia ip, median survival T/C. The experiment in a line: NCI In Vivo Anticancer Drug Screen. Data for tumor model P388 Leukemia (intraperitoneal) in B6D2F1 (BDF1) mice. Particulars: endpoint: median survival time, higher = longer survival. In outline:
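Reported as T/C, where T is the survival measurement in dosed animals and C the same measurement in vehicle controls.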

The mark [1] stands for this setting: dose: 6.25 mg/kg/injection, schedule: Q01DX009 (ip), vehicle: saline with Tween-80.
Where [2] appears, read: dose: 12.5 mg/kg/injection, schedule: Q01DX009 (ip), vehicle: saline with Tween-80.
Where [3] appears, read: dose: 25.0 mg/kg/injection, schedule: Q01DX009 (ip), vehicle: saline with Tween-80.
Where [4] appears, read: dose: 25.0 mg/kg/injection, schedule: Q04DX003 (ip), vehicle: saline with Tween-80.
Setting [5] is: dose: 50.0 mg/kg/injection, schedule: Q01DX009 (ip), vehicle: saline with Tween-80.
Setting [6] is: dose: 50.0 mg/kg/injection, schedule: Q04DX003 (ip), vehicle: saline with Tween-80.
[7] abbreviates: dose: 100.0 mg/kg/injection, schedule: Q01DX009 (ip), vehicle: saline with Tween-80.
Where [8] appears, read: dose: 100.0 mg/kg/injection, schedule: Q04DX003 (ip), vehicle: saline with Tween-80.
The mark [9] stands for this setting: dose: 200.0 mg/kg/injection, schedule: Q01DX009 (ip), vehicle: saline with Tween-80.
Where [10] appears, read: dose: 200.0 mg/kg/injection, schedule: Q04DX003 (ip), vehicle: saline with Tween-80.
Where [11] appears, read: dose: 400.0 mg/kg/injection, schedule: Q04DX003 (ip), vehicle: saline with Tween-80.
Setting [12] is: dose: 25.0 mg/kg/injection, schedule: Q04DX003 (ip), vehicle: Klucel (hydroxypropylcellulose) (HPC).
Setting [13] is: dose: 50.0 mg/kg/injection, schedule: Q04DX003 (ip), vehicle: Klucel (hydroxypropylcellulose) (HPC).
[14] abbreviates: dose: 50.0 mg/kg/injection, schedule: Q01DX009 (ip), vehicle: Klucel (hydroxypropylcellulose) (HPC).
The mark [15] stands for this setting: dose: 100.0 mg/kg/injection, schedule: Q01DX009 (ip), vehicle: Klucel (hydroxypropylcellulose) (HPC).

Consider `CN(C)c1ccc(C(=O)NN)cc1`, for which the T/C is, setting by setting: under setting [1], 91 % of control; under setting [2], 91 % of control; under setting [3], 122 % of control; under setting [4], 100 % of control; under setting [5], 115 % of control; under setting [6], 98 % of control. The T/C is, setting by setting: under setting [7], 121 % of control; under setting [8], 107 % of control; under setting [9], 100 % of control; under setting [10], 109 % of control; (dose: 300.0 mg/kg/injection, schedule: Q01DX009 (ip), vehicle: saline with Tween-80) 106 % of control.
For `Cc1cc(CC(Cl)(C(F)(F)F)C(F)(F)F)cc(CC(Cl)(C(F)(F)F)C(F)(F)F)n1`, the T/C was 110 % of control under setting [1]; 105 % of control under setting [2]; 90 % of control (dose: 12.5 mg/kg/injection, schedule: Q04DX003 (ip), vehicle: saline with Tween-80); 110 % of control under setting [3]; 90 % of control under setting [4]; 113 % of control under setting [6].
As to `CCOC(=O)C(=CN1CCOCC1)C(=O)OCC`, the T/C under setting [8] is 100 % of control, the T/C under setting [10] is 100 % of control and the T/C under setting [11] is 109 % of control.
In the case of `C#CCOC(=O)NCC`, the T/C was 100 % of control (dose: 100.0 mg/kg/injection, schedule: Q01DX009 (ip), vehicle: saline); 100 % of control (dose: 100.0 mg/kg/injection, schedule: Q04DX003 (ip), vehicle: saline); 115 % of control (dose: 200.0 mg/kg/injection, schedule: Q01DX009 (ip), vehicle: saline); 100 % of control (dose: 200.0 mg/kg/injection, schedule: Q04DX003 (ip), vehicle: saline); 115 % of control (dose: 400.0 mg/kg/injection, schedule: Q01DX009 (ip), vehicle: saline); 104 % of control (dose: 400.0 mg/kg/injection, schedule: Q04DX003 (ip), vehicle: saline).
For `COCCn1c2nc(=O)n(-c3ccccc3)c(=O)c-2nc2ccccc21`, the T/C is 89 % of control under setting [2], 114 % of control under setting [3] and 91 % of control under setting [5].
Consider `O=C(CCl)c1ccc[nH]1`, for which the T/C under setting [12] is 95 % of control and the T/C under setting [13] is 91 % of control.
For the molecule `Cc1ccc(C(=O)CCCCl)c(C)c1`, the T/C reads like this: under setting [8], 109 % of control; under setting [10], 109 % of control; under setting [11], 118 % of control.
Consider `O=C1Nc2c(Cl)cc(Cl)cc2/C1=N/N=C/c1ccccc1O`, for which the T/C reads like this: (dose: 12.5 mg/kg/injection, schedule: Q01DX005 (ip), vehicle: saline with Tween-80) 95 % of control; (dose: 25.0 mg/kg/injection, schedule: Q01DX005 (ip), vehicle: saline with Tween-80) 95 % of control; (dose: 50.0 mg/kg/injection, schedule: Q01DX005 (ip), vehicle: saline with Tween-80) 95 % of control.
For the molecule `Cc1c(NC(=O)Nc2ccccc2F)c(=O)n(-c2ccccc2)n1C`, the T/C is 100 % of control under setting [14]; 90 % of control under setting [15]; 95 % of control (dose: 200.0 mg/kg/injection, schedule: Q01DX009 (ip), vehicle: Klucel (hydroxypropylcellulose) (HPC)).
`c1ccc(-c2nc3ccccc3nc2-c2ccc(Cc3ccc(-c4nc5ccccc5nc4-c4ccccc4)cc3)cc2)cc1`: the T/C under setting [5] is 88 % of control, the T/C under setting [7] was 103 % of control and the T/C under setting [9] was 88 % of control.
As for `O=C1CN(Cc2ccc3c(c2)OCO3)NO1`, the T/C under setting [3] was 113 % of control, the T/C under setting [5] is 106 % of control, the T/C under setting [7] is 123 % of control and the T/C under setting [9] was 115 % of control.
Take `COc1cccc(OC)c1C(c1c(OC)cccc1OC)c1c(OC)cccc1OC`: the T/C under setting [1] is 115 % of control; the T/C under setting [2] was 100 % of control; the T/C under setting [3] was 109 % of control; the T/C under setting [4] is 104 % of control; the T/C under setting [7] was 120 % of control; the T/C under setting [8] was 116 % of control.
With `C1CCN(CC2CCCCN2)CC1` (stereo unspecified), the T/C is, setting by setting: (dose: 25.0 mg/kg/injection, schedule: Q01DX009 (ip), vehicle: Klucel (hydroxypropylcellulose) (HPC)) 100 % of control; under setting [12], 105 % of control; under setting [14], 100 % of control; under setting [13], 100 % of control; under setting [15], 90 % of control; (dose: 100.0 mg/kg/injection, schedule: Q04DX003 (ip), vehicle: Klucel (hydroxypropylcellulose) (HPC)) 110 % of control.
In the case of `Cc1ncc(/C=C/C(=O)O)c(C=O)c1O`, the T/C (dose: 6.25 mg/kg/injection, schedule: Q04DX003 (ip), vehicle: saline) was 103 % of control; the T/C (dose: 12.5 mg/kg/injection, schedule: Q04DX003 (ip), vehicle: saline) was 101 % of control; the T/C (dose: 25.0 mg/kg/injection, schedule: Q04DX003 (ip), vehicle: saline) was 100 % of control.
Consider `C=CCN1c2ccccc2Sc2cnccc21`, for which the T/C runs as follows: under setting [5], 109 % of control; under setting [7], 100 % of control and 104 % of control; under setting [9], 100 % of control.
Regarding `Cc1ccc(C2(C#N)CCCC2)cc1`, the T/C reads like this: under setting [7], 104 % of control; under setting [9], 113 % of control.
As to `C(=C\c1ccc2ccc(/C=C/c3ccccc3)cc2c1)/c1ccccc1`, the T/C is, setting by setting: under setting [8], 112 % of control; under setting [10], 90 % of control; under setting [11], 105 % of control.
Consider `O=[N+]([O-])c1ccc(S)cc1`, for which the T/C runs as follows: (dose: 18.75 mg/kg/injection, schedule: Q01DX009 (ip), vehicle: saline sonified) 100 % of control; (dose: 37.5 mg/kg/injection, schedule: Q01DX009 (ip), vehicle: saline sonified) 100 % of control; (dose: 75.0 mg/kg/injection, schedule: Q01DX009 (ip), vehicle: saline sonified) 117 % of control.
As to `Nc1ncnc2c1ncn2C1OC(CO)C(O)C1O.[Cl][Pt][Cl]` (stereo unspecified), the T/C was 115 % of control (dose: 100.0 mg/kg/injection, schedule: Q01DX009 (ip), vehicle: water); 102 % of control (dose: 200.0 mg/kg/injection, schedule: Q01DX009 (ip), vehicle: water); 96 % of control (dose: 400.0 mg/kg/injection, schedule: Q01DX009 (ip), vehicle: water).
For the molecule `O=C(O)c1cc(-c2cccc3ccccc23)nc2cc3ccccc3cc12`, the T/C reads like this: under setting [7], 99 % of control; under setting [9], 108 % of control.
With `CCCCCCOC(=O)C(O)c1ccccc1` (stereo unspecified), the T/C is 109 % of control under setting [6], 95 % of control under setting [8], 95 % of control under setting [10] and 100 % of control under setting [11].
As for `COC1CCC(C)(C=O)C(C#N)(C#N)C1(C#N)C#N` (stereo unspecified), the T/C by setting is: (dose: 12.5 mg/kg/injection, schedule: Q01DX001 (ip), vehicle: saline with Tween-80) 98 % of control; (dose: 25.0 mg/kg/injection, schedule: Q01DX001 (ip), vehicle: saline with Tween-80) 114 % of control; (dose: 50.0 mg/kg/injection, schedule: Q01DX001 (ip), vehicle: saline with Tween-80) 109 % of control.
Consider `CC[C@@]1(O)C[C@H](OC2CC(N(C)C)C(OC3CC(O)C(OC4CCC(=O)C(C)O4)C(C)O3)C(C)O2)c2c(cc3c(c2O)C(=O)c2c(O)cccc2C3=O)[C@H]1C(=O)OC` (stereo partly specified), for which the T/C (dose: 0.25 mg/kg/injection, schedule: Q01DX009 (ip), vehicle: water) was 100 % of control; the T/C (dose: 0.5 mg/kg/injection, schedule: Q01DX009 (ip), vehicle: saline) is 116 % of control; the T/C (dose: 2.0 mg/kg/injection, schedule: Q01DX009 (ip), vehicle: water) was 154 % of control; the T/C (dose: 3.24 mg/kg/injection, schedule: Q04DX003 (ip), vehicle: water) was 169 % of control; the T/C (dose: 4.0 mg/kg/injection, schedule: Q01DX009 (ip), vehicle: saline) was 166 % of control; the T/C (dose: 4.0 mg/kg/injection, schedule: Q01DX009 (ip), vehicle: water) was 194 % of control. Moreover, the T/C runs as follows: (dose: 4.7 mg/kg/injection, schedule: Q04DX003 (ip), vehicle: water) 116 % of control; (dose: 5.4 mg/kg/injection, schedule: Q04DX003 (ip), vehicle: water) 197 % of control; (dose: 8.0 mg/kg/injection, schedule: Q01DX009 (ip), vehicle: saline) 236 % of control; (dose: 9.0 mg/kg/injection, schedule: Q04DX003 (ip), vehicle: water) 203 % of control; (dose: 9.4 mg/kg/injection, schedule: Q04DX003 (ip), vehicle: water) 184 % of control.
